From patent US8822440B2, “Inhibiting cyclin D polypeptides” (Mayo Foundation for Medical Education and Research, priority 2006, dated 2014)
“Also recorded” adds a separate entry of the source.

Assays:
[1] = tested on: CCND2 promoter; assay: CCND2 promoter-luciferase transactivation assay in NIH3T3 cells with or without c-maf; format: cell-based, mouse
Method: Using this assay, Lopac (n=1280), Prestwick (n=1120), and Spectrum (n=2000) libraries of drugs and natural compounds were screened. In a parallel MTS assay, the effect of each compound on 3T3 viability was determined, allowing exclusion of compounds that caused secondary suppression of CCND2 due to non-specific cytotoxicity. […] These included monensin, patulin, β-lapachone, camptothecin, dihydrogambogic acid, gentian violet, thapsigargin, brefeldin A, pristimerin, and kinetin riboside.
Full-length c-maf cDNA was subcloned into an IRES-GFP MIEV retroviral vector and introduced into NIH3T3 cells by infection. Stable clones expressing GFP and c-maf were selected by flow cytometry and immunoblotting, respectively. The promoter of human cyclin D2 (−894 to −4; Brooks et al., J. Biol. Chem., 271, 9090-9 (1996)), containing c-maf responsive element sequence (MARE), was cloned from DNA from HeLa cells and inserted into the pGLbasic firefly luciferase vector (Promega, Madison, Wis.) immediately upstream of the luciferase gene. This construct was co-transfected with pcDNA3 (containing a neomycin resistance gene) into both NIH3T3 wild type cells and NIH3T3 cells stably over-expressing c-maf-IRES-GFP. Cells stably expressing c-maf, GFP, and luciferase were selected.
NIH3T3 cells stably expressing c-maf and the CCND2 promoter driving luciferase (13,000 cells per well) were plated in 96-well plates by a Biomek FX liquid handler (Beckman, Fullerton, Calif.). After the cells had adhered, they were treated with aliquots of molecules from LOPAC (Sigma, St. Louis, Mo.), Prestwick (Prestwick Chemical Inc, Illkirch, France) or Spectrum (Microsource Discovery Systems, Gaylordsville, Conn.) libraries of off-patent drugs and chemicals at a final concentration of ˜5 μM and <0.1% DMSO. Cells were incubated with compounds at 37° C. for 16 hours.
Luciferase assay. Luciferase activity was assessed according to the manufacturer's instructions (Promega, Madison, Wis.). Briefly, the cell culture medium was removed using an EMBLA plate washer (Molecular Devices, X) and Glo Lysis buffer (Promega) was added by robot. After a 10-minute incubation, an equal volume of Bright-Glo Luciferase substrate (Promega) was added, and luminescence signal was detected with a 96-well Luminoskan luminescence plate reader (Thermo Labsystem, Waltham, Mass.) using a 5 second integration.
Studies of kinetin riboside using 3T3-D2-luc cells. To examine CCND2 suppression induced by kinetin riboside, the reporter cells were exposed to kinetin riboside in combination with other drugs (all purchased from Sigma, St. Loius, Mo.) that influence CCND2 transcription or inhibit nucleoside transport or phosphorylation. NIH3T3 cells expressing the CCND2 promoter driving luciferase were incubated with kinetin riboside or vehicle control +/− forskolin, 4-(3-butoxy-4-methoxybenzyl)imidazolidin-2-one (BMBI), cantharadin, S-(4-Nitrobenzyl)-6-thioinosine (NBTI), or A-134974, as specified at 5 μM concentration for 16 hours at 37° C. […] Forskolin is a cell-permeable diterpenoid that activates adenylate cyclase resulting in increased cAMP concentration. BMBI (Sigma B8279) is an inhibitor of cAMP phosphodiesterase that also causes accumulation of cAMP. Cantharadin (C7632) is an inhibitor of protein phosphatase 2A and, from the library screen, mediates induction of CCND2. NBTI (Sigma N2255) is a potent adenosine uptake inhibitor, and A-134974 (Sigma A2846) is a selective inhibitor of adenosine kinase.
In an optimized automated assay, NIH3T3 cells over-expressing c-maf and the human cyclin D2 promoter driving luc were plated in 96-well plates by robot and following adhesion were treated for 16 hours with compounds at a final concentration of ˜5 μM and <0.1% DMSO. As a control, cells were treated with buffer alone. […] Thus, each compound from the library was tested in at least two assays—luciferase for CCND2 activity and MTS for viability. The coefficient of variance (CV) of the assay was <10%.

[2] = tested on: CD138+ myeloma cells; assay: Unsorted myeloma patient bone marrow, flow cytometry: CD138+ myeloma cells; format: cell-based, human
Method: Flow cytometry. HMCL were treated as indicated and then washed in cold phosphate-buffered saline (PBS) and resuspended in buffer containing AnnexinV-FITC and propidium iodide (BD Biosciences, San Jose, Calif.) for 15 minutes at room temperature. Cells (10^5) were subsequently diluted and analyzed immediately by flow cytometry (FACScan, BD Biosciences, San Jose, Calif.) using CellQuest software. Patient bone marrow specimens were prepared and analyzed in a similar fashion using AnnexinV-FITC and anti-CD138-PE (BD Biosciences, San Jose, Calif.).
As mouse embryos that lack any D-cyclins eventually die from hematopoietic failure (Kozar et al., Cell, 118, 477-91 (2004)), the bone marrow might be predicted to be one of the most sensitive non-malignant tissue to be affected by drugs targeting cyclin D expression. Unsorted bone marrow samples from myeloma patients were treated with kinetin riboside to assess the relative cytotoxicity of this drug on malignant versus non-malignant marrow cells. Bone marrow samples were first processed to remove non-nucleated red cells and were then treated for 48 hours with kinetin riboside (5 μM).

[3] = tested on: 8226 tumors; assay: 8226 myeloma xenograft in nude mice; format: in vivo
Method: FIG. 14. Kinetin riboside induces tumor growth arrest in My5 and 8226 myeloma tumor xenografts. (A) Matched pairs of nude mice bearing My5 tumors were treated intra-peritoneally (i.p.) with vehicle control (□) or with kinetin riboside (▪) at escalating dose-density from 100 mg/kg once daily to 85mg/kg 5×/daily, administered 5 days per week, commencing after mean tumor volume reached 135mm^3. Mean tumor volumes±SEM are shown from the time of xenografting (n=4/group). […]
Female nude X-linked immune-deficient (BNX) mice purchased from NCI-Frederick were used for in vivo studies. Animals had access to food and water ad libitum and were handled in accordance with animal care and use guidelines. Eight-week-old mice were inoculated with My5 or 8226 (2×10^7) MM cells subcutaneously (s.c.) in the right flank. Kinetin riboside (pre-dissolved in DMSO at 500 mg/mL and stored at −20° C.) was formulated daily by dropwise dissolution to 3.7 mg/mL in pre-warmed (37° C.) 0.9% saline, 1% β2-hydroxypropylcyclodextrin (Sigma) solution and was administered 1×-5× daily at 85 mg/kg/dose. The first dose daily was given intraperitoneally and remaining doses were given s.c. with increasing dosing intervals (30, 60, 120, 180 minutes). Tumor volumes were measured using vernier calipers and calculated with the formula L×W×H×2/3. P-values were calculated by paired t-test (JMP 6.0, SAS; Cary, N.C.).

OC[C@H]1O[C@@H](n2cnc3c(NCc4ccco4)ncnc32)[C@H](O)[C@@H]1O [kinetin riboside, N6-Furfuryladenosine]
time course of suppression of CCND2-driven luciferase ([1]; NIH3T3): rapid suppression of CCND2 transactivation
suppression of CCND2 promoter in absence or presence of c-maf ([1]; NIH3T3 CCND2-luc with or without c-maf): c-maf independent specific suppression of the CCND2 promoter
effect on BMBI-induced CCND2 transactivation ([1]; co-incubation, 5 μM, 16 hours): effectively blocked
effect on Forskolin-induced CCND2 transactivation ([1]; co-incubation, 5 μM, 16 hours): blocked
effect on cantharadin-induced CCND2 transactivation ([1]; co-incubation, 5 μM, 16 hours): abolished
identified as putative inhibitor of CCND2 transactivation (screen hit) ([1]; ~5 μM, 16 hours, hit = 50% or more reduction in luciferase relative to cell viability): putative CCND2 inhibitors; also recorded: putative suppressors of CCND2
kill of patient CD138+ myeloma cells ([2]; 5 μM, 48 hours): 92%
effect on primary CD138+ myeloma cells ([2]; patient bone marrow, 48 hours): most CD138+ cells become apoptotic
activity against CD138+ myeloma cells compared with non malignant hematopoietic cells ([2]; unsorted myeloma patient bone marrow samples): selective activity
effect on 8226 tumors compared to vehicle-treated mice ([3]; 85 mg/kg 4× daily upfront, p<0.01): Statistically significant tumor growth inhibition
effect on 8226 tumor growth ([3]; once daily, up to 100 mg/kg/day): no effect
